Assay results reported in publication PMC7615676, “Short-course combination treatment for experimental chronic Chagas disease” (Science translational medicine, 2023).
Read-outs that look alike come from different tables or passages of the source.

Tests used:
[1] = tested on: intracellular T. cruzi Silvio X10/7 A1 in Vero cells; experiment: washout outgrowth assay; assay type: cell-based, Trypanosoma cruzi; details: for relapse day after the end of treatment: 50× EC50 for five days
Method: Washout outgrowth assay: Vero cells were infected overnight in T600 flasks at a multiplicity of infection (MOI) 5 with T. cruzi Silvio X10/7 A1 trypomastigotes, followed by washing of the Vero monolayer to remove free trypomastigotes. 24 hours later the monolayer was trypsinised, 5.3 x 10^6 Vero cells were plated in T75 tissue culture flasks (in 20 ml MEM-Glutamax (ThermoFisher), 1% Fetal Calf Serum (FCS)), and treatment was started. For ten-day treatments, medium with compounds was replaced after the initial 5 days. For 16 day treatments the compounds were replaced every four days. For compound washout, all medium was aspirated, and flasks were washed three times with 10 ml serum-free MEM medium followed by a final aspiration and addition of 20 ml MEM-Glutamax (ThermoFisher) supplemented with 1% FCS. The cultures were then maintained until trypomastigotes were detected by light microscopy. Medium was replaced twice weekly and prior to each medium replacement microscopic evaluation was carried out (five fields per flask) for up to 60 days post washout. Robustness of the data was confirmed by profiling multiple compounds from the pyrrolopyrimidine series in a single experiment (compounds 2,3 and 4 in Fig. 2 and Fig. S17) as well as comparing results from independent experiments (compound 2 in Fig. 2, Fig. S5 and Fig. S7).

Property Forecast Index = assay type: physicochemical; details: number of aromatic rings + ChromLogD at pH 7.4
[2] = tested on: chronic T. cruzi infection (CL Brener) in BALB/c mice; experiment: bioluminescent mouse model of chronic Chagas disease; assay type: in vivo, Trypanosoma cruzi; details: 5 days
[3] = bioanalysis of blood samples from in vivo efficacy studies; set-up: species or system BALB/c mice; details: for AUC0-7h Day 1, unbound concentrations of BNZ / AUC0-7h Day 5, unbound concentrations of BNZ / Cmax Day 1, unbound concentrations of BNZ / Cmax Day 5, unbound concentrations of BNZ: 30mg/kg qd; for AUC0-7h Day 1, unbound concentrations of BNZ / AUC0-7h Day 5, unbound concentrations of BNZ / Cmax Day 1, unbound concentrations of BNZ / Cmax Day 5, unbound concentrations of BNZ / AUC0-7h Day 1, unbound concentrations of 4 / AUC0-7h Day 5, unbound concentrations of 4 / Cmax Day 1, unbound concentrations of 4 / Cmax Day 5, unbound concentrations of 4: 5 days; for AUC(0-t) / Cmax: BALB/c, mouse, whole blood, po
Method: Following the first daily dose on day 1 and last day of treatment, serial blood samples were taken by the tail vein from all treated mice pre-dose, then 30 minutes, 1, 2, 4, and 8 hours post-dose, mixed with two volumes of distilled water and analyzed for test compound. Quantification of compounds was performed by means of LC/MSMS and exposure parameters namely Cmax and AUClast were estimated using Phoenix 64 (Pharsight Certara).

HepG2 cells = experiment: general cytotoxicity assay in HepG2 cells; assay type: cell-based; details: Homo sapiens, HepG2, 48 h, CellTiter-Glo
Method: This assay was previously described ([36]). Briefly, actively growing HepG2 cells were removed from a T-175 TC flask using 5 ml Eagle’s MEM (containing 10 % FBS, 1 % NEAA, 1 % penicillin/ streptomycin. Carbon source is D-glucose at 1 g/l) and dispersed in the medium by repeated pipetting. Seeding density was checked to ensure that new monolayers were not more than 50 % confluent at the time of harvesting. Cell suspension was added to 500 ml of the same medium at a final density of 1.2 x 10^5 cells/ml. This cell suspension was dispensed (25 μl, 3000 cells per well) into 384-well clear-bottom plates using a Multidrop Combi dispenser. Prior to addition of the cell suspension, the screening compounds (250 nl) were predispensed into the plates with an EchoH liquid handler. Plates were incubated for 48 h at 37°C, 5% CO2. After incubation, plates equilibrated at room temperature for 30 min before proceeding to develop the luminescent signal. The signal developer, CellTiter-Glo Reagent, was allowed to equilibrate at room temperature for 30 min and added to the plates ([…]) using a Multidrop Combi dispenser. Plates were left for 10 min at room temperature for stabilization and then read using a ViewLux.

[4] = chromatographic LogD assay; assay type: physicochemical; details: reversed phase HPLC column (Gemini NX C18), pH 7.4; read-out: Chrom logD pH 7.4
Method: The chromatographic hydrophobicity index (CHI) values were measured using reversed phase HPLC column (50 mm × 2 mm, 3 μm Gemini NX C18, Phenomenex, U.K.) with fast acetonitrile gradient at starting mobile phase at pH 7.4. CHI values were derived directly from the gradient retention times by using a calibration line obtained for standard compounds. The CHI value approximates to the volume % organic concentration when the compound elutes. CHI was linearly transformed into ChromlogD by least-squares fitting of experimental CHI values to calculated log P (ClogP) values for over 20K research compounds using the following formula: ChromlogD = 0.0857CHI − 2.00. The average error of the assay is ±3 CHI units or ± 0.25 ChromlogD.

[5] = intrinsic clearance in mouse liver microsomes; assay type: in vitro ADME; details: for half-life at 0.5 μM: male, CD-1, read-out: T 1/2 mouse
Method: Immediately at time zero and at several serial times points up to 30 min, an aliquot of the incubation mixture was removed and mixed with acetonitrile to stop the reaction. Internal standard was added to all samples, the samples centrifuged to sediment precipitated protein and the plates then sealed prior to HPLC-MS/MS analysis. Metabolic stability expressed as a percentage of the parent molecule was calculated using the peak area ratio (compound peak area/internal standard peak area) of different compounds remaining after each incubation time compared to time zero of the incubation. The half-life (t1/2) was calculated using the following equation: t1/2=−ln(2)/k, where k is the turn-over rate constant of the ln (percent remaining) vs time regression.
CLint was calculated from the half-life (t1/2) using the following equations:
CLint (ml/min/g liver) = (0.693/(t1/2) x (ml of incubation/mg microsomal protein) x (mg microsomal protein/g liver).

T. cruzi CYP51 = T. cruzi CYP51 (Trypanosoma cruzi, UniProt Q7Z1V1); experiment: T. cruzi CYP51 biochemical assay
[6] = plasma protein binding, equilibrium dialysis; assay type: in vitro ADME; details: pH 7.4, mouse plasma, read-out: Mouse PPB % (converted)
Method: In vitro plasma protein binding was measured in mouse and human plasma using equilibrium dialysis at a nominal concentration of 2 μM. The RED inserts were placed in the 48 wells of the Teflon Plate (Pierce). Samples were prepared by mixing the test compound with plasma at the appropriate concentrations to yield a final drug concentration of 2 μM. Triplicate aliquots of plasma containing compounds at a concentration of 2 μM were pipetted to plasma side (red) of the insert, and PBS (phosphate buffered saline) pH 7.4 was placed into the receiver side (white) of the insert. The plate was covered with the sealing tape and incubated in a 37 °C orbital shaker water bath at approximately 150 rpm for 4 h. Following incubation, samples were prepared in a mixed matrix configuration. Aliquots of samples were pipetted into 96-well plates, and precipitation buffer was added to protein precipitate the samples. Samples were vortexed to mix, then centrifuged for 15 min at 3700 rpm and 4 °C. The supernatant was assayed directly by LC−MS/MS. The following equation was used to calculate the percentage bound drug fraction using this equilibrium dialysis method
% unbound = (buffer chamber]/[plasma chamber) x100

[7] = dosing group BNZ+ 3 (50mg/kg bid)
[8] = read-out: HepG2 pEC50 (converted)
[9] = 4 10 mg/kg bid + BNZ 30mg/kg qd
[10] = 4 30 mg/kg bid + BNZ 30mg/kg qd

Chain of T. cruzi CYP51 (Q7Z1V1 whole entry): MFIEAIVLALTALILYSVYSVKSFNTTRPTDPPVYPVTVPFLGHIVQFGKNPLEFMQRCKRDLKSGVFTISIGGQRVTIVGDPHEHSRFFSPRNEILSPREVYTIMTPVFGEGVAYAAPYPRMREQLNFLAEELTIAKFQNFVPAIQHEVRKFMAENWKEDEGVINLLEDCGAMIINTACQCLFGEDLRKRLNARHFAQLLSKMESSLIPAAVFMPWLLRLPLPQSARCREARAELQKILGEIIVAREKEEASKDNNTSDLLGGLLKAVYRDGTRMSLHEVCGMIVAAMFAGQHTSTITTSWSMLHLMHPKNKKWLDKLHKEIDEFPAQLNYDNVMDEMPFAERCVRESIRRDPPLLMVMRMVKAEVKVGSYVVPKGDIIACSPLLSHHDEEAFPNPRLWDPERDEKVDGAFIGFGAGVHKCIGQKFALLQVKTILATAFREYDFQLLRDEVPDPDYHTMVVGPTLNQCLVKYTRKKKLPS

O=C(Cn1ccnc1[N+](=O)[O-])NCc1ccccc1 [Benznidazole, reference compound]
relapse day after the end of treatment [1]: 14 days
relapse day after compound washout ([1]; ten-day treatment): no relapse
PFI (Property Forecast Index): 4.3
95% confidence interval for no-relapse ([2]; Fig. 3, BNZ 30 mg/kg qd, Adjusted Wald): 0.01 − 0.58
95% confidence interval for no-relapse ([2]; Fig. 6, BNZ 30 mg/kg qd): 0.06 − 0.8
AUC0-7h Day 1, unbound concentrations of BNZ ([3]; dosing group BNZ alone): 18788 ± 3214 ng·h/mL
AUC0-7h Day 5, unbound concentrations of BNZ ([3]; dosing group BNZ alone): 12583 ± 1812 ng·h/mL
Cmax Day 1, unbound concentrations of BNZ ([3]; dosing group BNZ alone): 6928 ± 1302 ng/mL
Cmax Day 5, unbound concentrations of BNZ ([3]; dosing group BNZ alone): 5230 ± 1373 ng/mL
AUC0-7h Day 1, unbound concentrations of BNZ [3, 7]: 15881 ± 4211 ng·h/mL
AUC0-7h Day 5, unbound concentrations of BNZ [3, 7]: 11350 ± 4513 ng·h/mL
Cmax Day 1, unbound concentrations of BNZ [3, 7]: 5188 ± 1385 ng/mL
Cmax Day 5, unbound concentrations of BNZ [3, 7]: 3725 ± 1302 ng/mL
EC50 (HepG2 cells; read-out: HepG2 EC50): > 100 µM
EC50 (HepG2 cells; [8]): > 100 µM
chromatographic logD [4]: 2.3

COc1cc(F)ccc1-c1c(C)[nH]c2nc(N)nc(C)c12 [Compound 2, 5-(4-Fluoro-2-methoxyphenyl)-4,6-dimethyl-7H-pyrrolo[2,3-d]pyrimidin-2-amine]
relapse day after the end of treatment [1]: 14 days
PFI (Property Forecast Index): 6.4
AUC(0-t) ([3]; 50 mg/kg, compound 2 50mg/kg bid, 21-day study, read-out: AUC0-7h Day 1): 5280 ± 1230 ng·h/mL
AUC(0-t) ([3]; 50 mg/kg, compound 2 50mg/kg bid, 21-day study, read-out: AUC0-7h Day 21): 8860 ± 1210 ng·h/mL
Cmax ([3]; 50 mg/kg, compound 2 50mg/kg bid, 21-day study, read-out: Cmax Day 1): 870 ± 196 ng/mL
Cmax ([3]; 50 mg/kg, compound 2 50mg/kg bid, 21-day study, read-out: Cmax Day 21): 1470 ± 202 ng/mL
AUC(0-t) ([3]; 100 mg/kg, compound 2 100mg/kg bid (changed to qd after day 1), 10-day study, read-out: AUC0-7h Day 1): 6270 ± 1140 ng·h/mL
AUC(0-t) ([3]; 100 mg/kg, compound 2 100mg/kg bid (changed to qd after day 1), 10-day study, read-out: AUC0-7h Day 10): 11500 ± 1950 ng·h/mL
Cmax ([3]; 100 mg/kg, compound 2 100mg/kg bid (changed to qd after day 1), 10-day study, read-out: Cmax Day 1): 1250 ± 236 ng/mL
Cmax ([3]; 100 mg/kg, compound 2 100mg/kg bid (changed to qd after day 1), 10-day study, read-out: Cmax Day 10): 2260 ± 315 ng/mL
Cl int mouse [5]: 1.3 ml/min/g liver
half-life at 0.5 μM [5]: 52 min
EC50 (HepG2 cells; read-out: HepG2 EC50): 79 µM
EC50 (HepG2 cells; [8]): 63.1 µM
IC50 (T. cruzi CYP51): > 100 µM
fraction unbound at 4 h, 2 μM [6]: 0.18
chromatographic logD [4]: 3.4

COc1ccc(-c2c(C)[nH]c3nc(N)nc(C)c23)c(OC)c1 [Compound 4, 5-(2,4-Dimethoxyphenyl)-4,6-dimethyl-7H-pyrrolo[2,3-d]pyrimidin-2-amine]
PFI (Property Forecast Index): 6.1
95% confidence interval for no-relapse ([2]; Fig. 6, compound 4 50 mg/kg bid): 0.01 − 0.58
AUC0-7h Day 1, unbound concentrations of 4 [3, 9]: 2419 ± 453 ng·h/mL
AUC0-7h Day 5, unbound concentrations of 4 [3, 9]: 1488 ± 292 ng·h/mL
Cmax Day 1, unbound concentrations of 4 [3, 9]: 496 ± 82 ng/mL
Cmax Day 5, unbound concentrations of 4 [3, 9]: 650 ± 203 ng/mL
AUC0-7h Day 1, unbound concentrations of 4 [3, 10]: 10441 ± 1994 ng·h/mL
AUC0-7h Day 5, unbound concentrations of 4 [3, 10]: 6773 ± 311 ng·h/mL
Cmax Day 1, unbound concentrations of 4 [3, 10]: 1931 ± 261 ng/mL
Cmax Day 5, unbound concentrations of 4 [3, 10]: 1577 ± 161 ng/mL
AUC0-7h Day 1, unbound concentrations of 4 ([3]; 4 50mg/kg bid alone): 16176 ± 776 ng·h/mL
AUC0-7h Day 5, unbound concentrations of 4 ([3]; 4 50mg/kg bid alone): 17378 ± 1605 ng·h/mL
Cmax Day 1, unbound concentrations of 4 ([3]; 4 50mg/kg bid alone): 2934 ± 294 ng/mL
Cmax Day 5, unbound concentrations of 4 ([3]; 4 50mg/kg bid alone): 3736 ± 628 ng/mL
Cl int mouse [5]: 2.0 ml/min/g liver
half-life at 0.5 μM [5]: 33 min
EC50 (HepG2 cells; read-out: HepG2 EC50): 79 µM
EC50 (HepG2 cells; [8]): 79.4 µM
IC50 (T. cruzi CYP51): > 100 µM
fraction unbound at 4 h, 2 μM [6]: 0.22
chromatographic logD [4]: 3.1
